{"source": "patent US6399654B1", "about": "“Biflavanoids and derivatives thereof as antiviral agents” (priority 1995, dated 2002)", "key": {"[1]": {"biological_target": "T1, HIV-1 RT (Human immunodeficiency virus type 1 group M subtype B, UniProt P03366)", "T1 construct": "made in house; host or cells: Escherichia coli", "assay": "Anti-HIV-1 RT assay (recombinant enzyme)", "type": "biochemical", "conditions": "for inhibition at 200 µg/mL: read-out: Anti-HIV-1 RT % Inhibition at 200 μg/ml"}, "[2]": {"system": "Hepatitis B Virus (HBV)", "assay": "Inhibition of HBV replication in 2.2.15 cells, extracellular (virion) HBV DNA;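 on all read-outs here: extracellular virion HBV DNA in culture medium measured by slot blot hybridization with a 32P-labeled HBV probe, quantified against HBV DNA standards, after 9 days of daily dosing, compared with day 0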", "conditions": "for SI (CC50/EC90), HBV Virion: selective index; for fold less active/potent than robustaflavone against HBV: in vitro assay against HBV"}, "[3]": {"system": "Hepatitis B Virus (HBV)", "assay": "HBV replication intermediates (RI, intracellular HBV DNA) in 2.2.15 cells", "type": "cell-based", "description": "Test compounds were added daily for a nine continuous day period; the culture medium was collected and stored for analysis of extracellular (virion) HBV DNA after 0, 3, 6, and 9 days of treatment. The treated cells were lysed 24 hours following day 9 of treatment for the analysis of intracellular HBV genomic forms. The overall levels of HBV DNA (both extracellular and intracellular DNA) and the relative rate of HBV replication (intracellular DNA) were analyzed quantitatively. The analysis was performed using blot hybridization techniques and [^32P]-labeled HBV-specific probes. The HBV DNA levels were measured by comparison to known amounts of HBV DNA standards applied to every nitrocellulose membrane (gel or slot blot). An AMBIS beta scanner, which measures the radioactive decay of the hybridized probes directly from the nitrocellulose membranes, was used for the quantitative analysis. Standard curves, generated by multiple analyses, were used to correlate CPM measurements made by the beta scanner with relative levels of target HBV DNA. The levels of HBV virion DNA released into the culture medium were analyzed by a slot blot hybridization procedure. HBV DNA levels were then compared to those at day 0 to determine the effect of the test compound. A known positive drug was evaluated in parallel with test compounds in each test."}, "[4]": {"system": "Hepatitis B Virus (HBV)", "assay": "HBV proteins and nucleic acids in 2.2.15 cells", "type": "cell-based", "conditions": "Day 9, 2.2.15 cells; robustaflavone @10 μM", "procedure": "Values of HBV proteins were determined by semi-quantitative EIA performed as previously described.^83 For the EIA analyses, test samples-were diluted (2- to 10-fold) so that the assay values produced were within the linear dynamic range of the EIA assays. Standard curves using serial dilutions of positive assay controls were included in each set of EIA analyses. HBV surface antigen ([…]), preSI protein, and HBc antigen ([…]) are released as extracellular products and were therefore analyzed in culture medium obtained 24 h following the last treatment dose of oligonucleotides or 2′, 3′-ddc. HBV core antigen (HBcAg) is an intracellular viral protein and was assayed in cell extracts produced by Triton-X-100 lysis.^83\nCultures for HBV RNA were maintained on 6-well plates, cultures for HBV virion DNA analyses were maintained on either 96- or 24-well plates, and cultures for all other HBV parameters were maintained on 24-well plates.\nThe concentrations of antiviral agents used in these studies approximates the EC50 values of the individual agents against intracellular HBV DNA replication intermediates (HBV RI). Cultures were treated with the indicated agents for 9 days using standard procedures. Values reported are the levels of the indicated HBV markers at the end of the treatment period (“DAY 9”) expressed as a percentage (±standard deviation (S.D.) of the average levels in the control cultures at the beginning of the treatment period (“DAY 0”). The method of expression permits an analysis of the variation of the HBV markers in the untreated (control) cultures over the course of the treatment period. HBV nucleic acid levels were measured by standard blot hydridization (dot, Southern, or Northern). HBV protein levels were measured by standard semi-quantitative EIA methods. Cultures for HBV RNA were maintained in 6-well culture plates. The levels of each of two major classes of HBV RNA transcripts are listed separately. Cultures for all other HBV markers were maintained in 24-well culture plates. For each treatment, a total of 4 separate cultures were used for the analysis of each HBV marker at both DAY 0 and DAY 9.\nDetermination of Mechanism of Action. Measurements of intracellular and extracellular HBV DNA, 3.6 kb and 2.1 kb mRNA fragments, and HBsAg, HBeAg and HBcAg protein markers were conducted as previously described (93)."}, "[5]": {"system": "HCMV", "assay": "HCMV CPE inhibition in HFF cells", "conditions": "HFF Cells"}, "[6]": {"conditions": "Anti-HIV-1 RT IC50, values in parentheses or in words"}, "[7]": {"conditions": "HIV-1 RT IC50 (50% inhibition dose)"}, "[8]": {"conditions": "read-out: EC50 (50% effective dose), HBV Virion, 2.2.15 cells, extracellular (virion) HBV DNA, 9 days treatment"}, "[9]": {"conditions": "read-out: EC90 (90% effective dose), HBV Virion, 2.2.15 cells, extracellular (virion) HBV DNA, 9 days treatment"}, "[10]": {"conditions": "values in parentheses or in words"}}, "note": "Where a name gives a salt, the structure may show the parent alone. Read-outs that look alike come from different tables or passages of the source.", "data": [{"smiles": "O=c1cc(-c2ccc(OS(=O)(=O)O)c(-c3c(OS(=O)(=O)O)cc4oc(-c5ccc(OS(=O)(=O)O)cc5)cc(=O)c4c3O)c2)oc2cc(OS(=O)(=O)O)cc(O)c12", "note": "[Robustaflavone tetrasulfate (17), robustaflavone-7,4′,7″,4′″-tetrasulfate K-salt]", "values": [{"measurement": "IC50", "setting": "[1]; [6]", "result": 144, "unit": "µM"}, {"measurement": "IC50", "setting": "[1]; [7]", "result": 168, "unit": "µM"}, {"measurement": "inhibition at 200 µg/mL", "setting": "[1]", "result": 95.5, "unit": "%"}, {"measurement": "anti-HBV activity (in words)", "setting": "[2]; 2.2.15 cells", "result": "extremely effective"}, {"measurement": "EC50", "setting": "[2]; Hepatitis B virus, 216 h, read-out: EC50 (50% effective dose), HBV Virion, 2.2.15 cells, extracellular (virion) HBV DNA, 9 days treatment", "result": 0.4, "unit": "µM"}, {"measurement": "EC90", "setting": "[2]; Hepatitis B virus, 216 h, read-out: EC90 (90% effective dose), HBV Virion, 2.2.15 cells, extracellular (virion) HBV DNA, 9 days treatment", "result": 3.6, "unit": "µM"}, {"measurement": "SI (CC50/EC90), HBV Virion", "setting": "[2]", "result": 110}]}, {"smiles": "COc1ccc(-c2cc(=O)c3c(OC)c(-c4cc(-c5cc(=O)c6c(OC)cc(OC)cc6o5)ccc4OC)c(OC)cc3o2)cc1", "note": "[Robustaflavone hexamethyl ether, hexa-O-methylrobustaflavone]", "values": [{"measurement": "fold less active/potent than robustaflavone against HBV", "setting": "[2]", "result": "~10", "unit": "fold"}, {"measurement": "EC50", "setting": "[2]; [8]", "result": 2.9, "unit": "µM"}, {"measurement": "EC90", "setting": "[2]; [9]", "result": 28, "unit": "µM"}, {"measurement": "SI (CC50/EC90), HBV Virion", "setting": "[2]", "result": ">36"}]}, {"smiles": "Nc1ccn([C@H]2CC[C@@H](CO)O2)c(=O)n1", "note": "[2′,3′-ddC, 2′,3′-dideoxycytosine, reference compound]", "values": [{"measurement": "EC50", "setting": "[3]; 2.2.15 cells, read-out: EC50, HBV replication intermediates (RI) (intracellular DNA)", "result": 2.4, "unit": "µM"}, {"measurement": "Viral Antigens: HBeAg", "setting": "[4]", "result": "88 ± 10 % of Day 0 Control"}, {"measurement": "Viral Antigens: HBsAg", "setting": "[4]", "result": "90 ± 12 % of Day 0 Control"}, {"measurement": "Viral Antigens: HbcAG", "setting": "[4]", "result": "91 ± 9 % of Day 0 Control"}, {"measurement": "Viral DNA: Extracellular DNA", "setting": "[4]", "result": "1 ± 1 % of Day 0 Control"}, {"measurement": "Viral DNA: Intracellular DNA", "setting": "[4]", "result": "6 ± 1 % of Day 0 Control"}, {"measurement": "Viral mRNA: 3.6 kb and 2.1 kb mRNA (first column)", "setting": "[4]", "result": "94 ± 7 % of Day 0 Control"}, {"measurement": "Viral mRNA: 3.6 kb and 2.1 kb mRNA (second column)", "setting": "[4]", "result": "87 ± 9 % of Day 0 Control"}, {"measurement": "EC50", "setting": "[2]; [8]", "result": 1.8, "unit": "µM"}, {"measurement": "EC50", "setting": "[2]; read-out: EC50, concentration necessary to decrease HBV DNA levels by 50%, 2.2.15 cells, combinations: with respect to RF", "result": 1.4, "unit": "µM"}, {"measurement": "EC90", "setting": "[2]; [9]", "result": 94, "unit": "µM"}, {"measurement": "SI (CC50/EC90), HBV Virion", "setting": "[2]", "result": 28}]}, {"smiles": "COc1cccc2c1C(=O)c1c(O)c3c(c(O)c1C2=O)C[C@@](O)(C(C)=O)C[C@@H]3O[C@H]1C[C@H](N)[C@H](O)[C@H](C)O1", "note": "[daunomycin, reference compound]", "values": [{"measurement": "IC50", "setting": "[1]; [7]", "result": 237, "unit": "µM"}]}, {"smiles": "O=C1c2c(O)cc(O)cc2O[C@@H](c2ccc(O)cc2)[C@@H]1c1c(O)cc(O)c2c(=O)cc(-c3ccc(O)cc3)oc12", "note": "[Volkensiflavone (5), volkensiflavone]", "values": [{"measurement": "activity against HIV-1 RT (in words)", "setting": "[1]", "result": "weakly active"}, {"measurement": "inhibition at 200 µg/mL", "setting": "[1]", "result": 45.3, "unit": "%"}]}, {"smiles": "CC(=O)Oc1ccc(-c2cc(=O)c3c(OC(C)=O)c(-c4cc(-c5cc(=O)c6c(OC(C)=O)cc(OC(C)=O)cc6o5)ccc4OC(C)=O)c(OC(C)=O)cc3o2)cc1", "note": "[Robustaflavone Hexaacetate, robustaflavone hexaacetate]", "values": [{"measurement": "SI (CC50/EC90), second value in parentheses", "setting": "[3]; Table 2, value in parentheses, not explained", "result": 163}, {"measurement": "EC50", "setting": "[3]; Table 2, value in parentheses, not explained, read-out: EC50, second value in parentheses", "result": 3.9, "unit": "µM"}, {"measurement": "EC90", "setting": "[3]; Table 2, value in parentheses, not explained, read-out: EC90, second value in parentheses", "result": 11, "unit": "µM"}, {"measurement": "fold less active/potent than robustaflavone against HBV", "setting": "[2]", "result": "approximately three-fold"}, {"measurement": "EC50", "setting": "[2]; [8]", "result": 0.73, "unit": "µM"}, {"measurement": "EC90", "setting": "[2]; [9]", "result": 2.8, "unit": "µM"}, {"measurement": "SI (CC50/EC90), HBV Virion", "setting": "[2]", "result": "> 360"}]}, {"smiles": "COc1ccc([C@@H]2Oc3cc(OC)cc(OC)c3C(=O)[C@H]2c2c(OC)cc(OC)c3c(=O)cc(-c4ccc(OC)c(OC)c4)oc23)cc1", "note": "[morelloflavone heptamethyl ether (8), morelloflavone heptamethyl ether]", "values": [{"measurement": "activity against HIV-1 RT (in words)", "setting": "[1]", "result": "inactive"}]}, {"smiles": "O=c1cc(-c2ccc(O)cc2)oc2cc(O)cc(O)c12", "note": "[Apigeriin, 4′,5,7-trihydroxyflavone, reference compound]", "values": [{"measurement": "activity against HIV-1 RT (in words)", "setting": "[1]", "result": "moderate activity"}, {"measurement": "IC50", "setting": "[1]; [6]", "result": 443, "unit": "µM"}, {"measurement": "inhibition at 200 µg/mL", "setting": "[1]", "result": 72, "unit": "%"}]}, {"smiles": "O=C1C[C@@H](c2ccc(O)cc2)Oc2c1c(O)cc(O[C@@H]1O[C@H](CO)[C@@H](O)[C@H](O)[C@H]1O)c2[C@H]1C(=O)c2c(O)cc(O)cc2O[C@@H]1c1ccc(O)cc1", "note": "[GB-1a glucoside (15), GB-1a 7″-O-b-glucoside]", "values": [{"measurement": "activity against HIV-1 RT (in words)", "setting": "[1]", "result": "no activity"}, {"measurement": "Anti-HIV-1 RT % Inhibition at 200 μg/ml", "setting": "[1]", "result": 1.46, "unit": "%"}, {"measurement": "Anti-HIV-1 RT IC50", "setting": "[1]; [10]", "result": "Inactive"}]}, {"smiles": "O=C1C[C@@H](c2ccc(O)c(O)c2)Oc2c1c(O)cc(O)c2[C@H]1C(=O)c2c(O)cc(O)cc2O[C@@H]1c1ccc(O)cc1", "note": "[GB-2a(16), GB-2a]", "values": [{"measurement": "HIV-1 RT IC50 (50% inhibition dose)", "setting": "[1]", "result": 94.6, "unit": "µg/mL"}, {"measurement": "Anti-HIV-1 RT % Inhibition at 200 μg/ml", "setting": "[1]", "result": 96, "unit": "%"}, {"measurement": "IC50", "setting": "[1]; values in parentheses or in words, read-out: Anti-HIV-1 RT IC50", "result": 170, "unit": "µM"}]}, {"smiles": "Nc1nc2c(ncn2COC(CO)CO)c(=O)[nH]1", "note": "[GVC, reference compound]", "values": [{"measurement": "HCMV CPE Inhibition EC50", "setting": "[5]", "result": 0.4, "unit": "µg/mL"}]}, {"smiles": "COc1ccc(C2CC(=O)c3c(OC)cc(OC)c(C4C(=O)c5c(OC)cc(OC)cc5OC4c4ccc(OC)cc4)c3O2)cc1", "note": "(stereo not drawn) [GB-1a Me6(14), GB-1a hexamethyl ether]", "values": [{"measurement": "activity against HIV-1 RT (in words)", "setting": "[1]", "result": "inactive"}, {"measurement": "Anti-HIV-1 RT IC50", "setting": "[1]; [10]", "result": "Inactive"}]}, {"smiles": "O=C1CC(c2ccc(O)cc2)Oc2cc(O)cc(O)c21", "note": "(stereo not drawn) [Naringenin, 4′,5,7-trihydroxyflavanone, reference compound]", "values": [{"measurement": "activity against HIV-1 RT (in words)", "setting": "[1]", "result": "slight inhibition"}, {"measurement": "inhibition at 200 µg/mL", "setting": "[1]", "result": 34.9, "unit": "%"}]}]}
